Reference: patent publication US12385042B2, “Cell-penetrating peptides” (VECTIOPEP OÜ, priority 2019, dated 2025)

Test system: U87 MG-luc2 human glioma cells, stably expressing luc2
Test: Luciferase gene downregulation by CPP/siRNA (siLuc2) complexes
Assay type: cell-based
Details: CPP/siRNA complexes, siRNA against luciferase
Method: For assessing the siRNA mediated RNAi, CHO-GFP or U87-luc2 cells (5×10^5 cells per well) were seeded on a 24-well plate a day prior to the experiment and grown in serum containing media. On experiment day, prior to adding pre-formed complexes ( 1/10th of the final volume per well), media was replaced with fresh serum containing medium.
For complex formation, peptide was mixed with luc2 siRNA (sense 5′-[…]-3′ (SEQ ID NO:7), antisense 5′-[…] 3′ (SEQ ID NO:8), Metabion, Germany) or with siRNA against GFP (5′-[…] (SEQ ID NO:9), 3′-[…] (SEQ ID NO:10)) in mQ water (pH 5.3-6.3) using peptide to siRNA molar ratios (MR is the ratio of peptide to siRNA) […] and incubated at RT for 1 h. For siLuc2, the final concentration in media was 25 nM and for siGFP 100 nM. Cells were co-incubated with complexes for 4 h (37° C., 5% CO2), thereafter fresh serum containing media was added and followed by further incubation (20 h for siLuc2 or 44 h for siGFP complexes). Luciferase gene downregulation was measured from cell lysates with Promega luciferase assay system (Promega, Sweden) in combination with GLOMAX 96 microplate luminometer equipped with GLOMAX 1.9.2 software (Promega). GFP was measured after treatment from cell lysates on black 96-well plates by measuring total fluorescence (Symergy MX, BioTek Instruments, USA equipped with Gen5 1.10 software). The results were normalized to the protein content of each sample (DC Protein Assay, BioRad, USA).
Luciferase activity was determined as described in previous paragraph.
For determination of pH dependency on the transfection efficiency, complexes were formed at MR30, incubated and diluted before addition to cells to obtain siRNA final concentration 10 nM in transfection media. HEPES buffer supplemented with 10% FBS was used as transfection media. Complexes were co-incubated with cells for 4 h and then media was replaced with cell growth media. After further 20 h incubation cells were lysed and analyzed as described previously.
The experiment was carried out in serum containing media (10% FBS). CPP/siRNA complexes were formed at different molar ratios with siRNA concentration kept constant (50 nM in transfection media). Luminescence from luciferin-luciferase reaction was measured at 24 hours post-treatment from cell lysate. Results were normalized to protein content and luminescence values from untreated cells (100%).

| Substance | Red (%) (reduction, based on remaining luminescence on U87 cells post-treatment) |
| --- | --- |
| HHHHHHYHHGO^eILLKALKALAKAIL [NF721, group H8; C18 saturated fatty acid on N-terminus; C-terminally amidated] | 55 |
| HYHHGO^eILLKALKALAKAIL [NF726, group H3; C20 saturated fatty acid on N-terminus; C-terminally amidated] | 50 |
| HHHHHYHHGO^eILLKALKALAKAIL [NF724, group H7; C22 saturated fatty acid on N-terminus; C-terminally amidated] | 40 |
| HHHHYHHGO^eILLKALKALAKAIL [NF701, group H6; C10 (decanoyl) fatty acid on N-terminus; C-terminally amidated] | 20 |
| HHYHHGO^eILLKALKALAKAIL [NF717, group H4; C16 saturated fatty acid on N-terminus; C-terminally amidated] | 43 |
| HHHYHHGO^eILLKALKALAKAIL [NF718, group H5; C22 saturated fatty acid on N-terminus; C-terminally amidated] | 75 |
| HHYHHGO^eILLKALKALAKAIL [NF712, group H4; C20 saturated fatty acid on N-terminus; C-terminally amidated] | 83 |
| HHYHHGO^eILLKALKALAKAIL [NF713, group H4; C22 saturated fatty acid on N-terminus; C-terminally amidated] | 47 |
| HHHHHHGO^eILLKALKALAKAIL [NF706, C22 fatty acid on N-terminus; C-terminally amidated] | 59 |
| HHHHHHYLLGO^eILLKALKALAKAIL [NF708, group H6^2 (histidines before tyrosine); C20 fatty acid on N-terminus; C-terminally amidated] | 71 |
| HHHHHHYHHGO^eILLKALKALAKAIL [NF722, group H8; C22 saturated fatty acid on N-terminus; C-terminally amidated] | 45 |
| HHHYHHGO^eILLKALKALAKAIL [NF715, group H5; C18 saturated fatty acid on N-terminus; C-terminally amidated] | 62 |
| HHHHHHYLLGO^eILLKALKALAKAIL [NF707, group H6^2 (histidines before tyrosine); C18 fatty acid on N-terminus; C-terminally amidated] | 70 |
| HHHHYHHGO^eILLKALKALAKAIL [NF711, group H6; C16 saturated fatty acid on N-terminus; C-terminally amidated] | 35 |
| HHHHHHYLLGO^eILLKALKALAKAIL [NF709, group H6^2 (histidines before tyrosine); C22 fatty acid on N-terminus; C-terminally amidated] | 55 |
| HHHHHYHHGO^eILLKALKALAKAIL [NF719, group H7; C18 saturated fatty acid on N-terminus; C-terminally amidated] | 39 |
| HHHHHYHHGO^eILLKALKALAKAIL [NF723, group H7; C20 saturated fatty acid on N-terminus; C-terminally amidated] | 49 |
